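Tested at 5 concentrations; 48 h exposure; 96-well plates; endpoints linearly interpolated, else capped at highest concentration. GI50: concentration for 50% inhibition of growth. TGI denotes the concentration required for complete inhibition of growth.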

Data on 18 compounds can be found in PubChem BioAssay (NCI).

Assay in all cases: NCI-60 cell line screen, 48 h
Experiment [1] concerns SF-539 CNS.
The test system of experiment [2] is OVCAR-4 ovarian.
Experiment [3] relates to SF-295 CNS.
Experiment [4] relates to OVCAR-8 ovarian.
Experiment [5] has as its system SW-620 colon.
The test system of experiment [6] is HCC-2998 colon.
Experiment [7] relates to TK-10 renal.
Experiment [8] concerns ACHN renal.
Experiment [9] has as its system NCI-H226 lung.
The subject of experiment [10] is SK-MEL-5 melanoma.

For the compound `O=C(N/N=C/c1ccc(N(CCCl)CCCl)cc1)c1ccc(C(=O)N/N=C/c2ccc(N(CCCl)CCCl)cc2)cc1`, the GI50 is 0.612 µM in [1]; 47.9 µM in experiment [2]; 0.213 µM in experiment [3]; 12.9 µM in experiment [4]; 19.5 µM in experiment [5]; 86.8 µM in experiment [6]. Also, the GI50 in [7] was more than 100 µM; in experiment [8], 6.8 µM; in experiment [9], 57.4 µM; in experiment [10], 18.1 µM. For the same compound, the TGI in experiment [1] is 47.3 µM; in experiment [2], more than 100 µM; in experiment [3] it was more than 100 µM; in [4], more than 100 µM; in experiment [5], more than 100 µM; in experiment [6], more than 100 µM. Besides, the TGI in [7], in experiment [8], in experiment [9] and in experiment [10] was more than 100 µM each time.
On to `NC1=Nc2ccccc2Sc2ccccc21`, for which the TGI in experiment [1], in experiment [2], in [3], in experiment [4], in experiment [5] and in [6] was more than 100 µM throughout. Further, the TGI in [7], in experiment [8], in experiment [9] and in experiment [10] was more than 100 µM throughout.
Turning to `Cc1c(Cl)cccc1NC(=O)C(=O)c1c(O)c2ccc(O)cc2oc1=O`, the TGI in experiment [1], in [2], in [3], in [4], in experiment [5] and in experiment [6] was more than 100 µM throughout. For the same compound, the TGI in experiment [7], in experiment [8], in experiment [9] and in [10] was more than 100 µM in each case.
Turning to `CC1=C2C3OC(=O)C(C)C3C(O)C[C@@]2(C)C(=O)CC1` (stereo not given in full), the TGI in [1], in experiment [2], in [3], in [4], in experiment [5] and in experiment [6] was more than 100 µM in each case. In addition, the TGI in experiment [7], in experiment [8], in experiment [9] and in experiment [10] was more than 100 µM in each case.
On to `CSc1nc2ccc(C)cc2cc1/C=C1/C=C(c2ccccc2)NC1=O`, for which the GI50 in experiment [1] is 2.35 µM; in experiment [2], 0.296 µM; in experiment [3], 1.44 µM; in experiment [4], 3.6 µM; in experiment [5] it was 2.62 µM; in experiment [6] it was more than 100 µM. The GI50 in experiment [7] was 2.63 µM; in [8] it was 1.04 µM; in experiment [9], 7.3 µM; in [10], 21.3 µM. Also, the TGI is 9.66 µM in experiment [1]; 1.03 µM in [2]; 15 µM in [3]; 23.2 µM in experiment [4]; 92.1 µM in experiment [5]; more than 100 µM in [6]. For the same compound, the TGI is 8.46 µM in [7], 5.54 µM in experiment [8], more than 100 µM in experiment [9] and more than 100 µM in experiment [10].
With `N#Cc1cc2c(cc1Cl)SC(=Nc1ccccc1)N(S(=O)(=O)c1ccc(Br)s1)S2(=O)=O`, the GI50 is 21.6 µM in experiment [1]; 20.9 µM in experiment [2]; 30.4 µM in experiment [3]; 18.9 µM in experiment [4]; 18.9 µM in experiment [5]; 14.7 µM in [6]. The GI50 in [7] is 19.7 µM; in [8] it was 19.7 µM; in [9], 28.8 µM; in experiment [10] it was 16 µM. The TGI worked out at 39 µM in experiment [1]; 44 µM in [2]; 89.5 µM in experiment [3]; 47.9 µM in [4]; 40 µM in experiment [5]; 30.8 µM in experiment [6]. For the same compound, the TGI in experiment [7] turned out to be 35.6 µM; in experiment [8], 37.3 µM; in experiment [9] it was 55.8 µM; in experiment [10], 30.3 µM.
In the case of `COC(=O)C(C)Oc1ccc(O)cc1` (stereo not given), the TGI in [1], in [2], in [3], in [4], in experiment [5] and in [6] was more than 100 µM throughout. Further, the TGI in [7], in [8], in experiment [9] and in [10] was more than 100 µM in each case.
For the compound `O=C1C(OC(=O)c2ccccc2)=C(c2ccc(O)cc2)C(=O)C(OC(=O)c2ccccc2)=C1c1ccc(O)cc1`, the TGI in [1], in [2], in [3], in [4], in experiment [5] and in experiment [6] was more than 100 µM throughout. In addition, the TGI in [7], in experiment [8], in experiment [9] and in experiment [10] was more than 100 µM throughout.
For `C=C(CN1CCN(c2ccc(F)c(Cl)c2)CC1)c1ccc(C(=O)Nc2ccccc2N)cc1`, the GI50 in experiment [1] was 5.79 µM; in experiment [2], more than 100 µM; in experiment [3] it was 6.95 µM; in experiment [4], 5.42 µM; in [5], 5.37 µM; in [6], 9.47 µM. In addition, the GI50 in experiment [7] was 18.2 µM; in experiment [8], 6.43 µM; in experiment [9], 9.12 µM; in [10], 5.62 µM. Further, the TGI in experiment [1] was 26.2 µM; in [2] it was more than 100 µM; in experiment [3] it was more than 100 µM; in experiment [4], more than 100 µM; in experiment [5], more than 100 µM; in experiment [6], 24.9 µM. The TGI in experiment [7] is 97.5 µM; in [8], more than 100 µM; in experiment [9] it was 55.3 µM; in experiment [10] it was 22.3 µM.
`CC1=C(SCCC(=O)OC(C[Se]C2=C(C)C(=O)c3ccccc3C2=O)C(=O)NC(C)(C)C)C(=O)c2ccccc2C1=O` (stereo not given): the GI50 was 1.44 µM in experiment [1]; 1.45 µM in experiment [2]; 0.315 µM in [3]; 1.28 µM in experiment [4]; 1.36 µM in experiment [5]; 1.59 µM in [6]. For the same compound, the GI50 in [7] is 2.52 µM; in experiment [8], 1.56 µM; in [9] it was 1.87 µM; in [10] it was 1.52 µM. For the same compound, the TGI was 2.75 µM in experiment [1]; 2.76 µM in [2]; 1.21 µM in experiment [3]; 2.74 µM in experiment [4]; 2.87 µM in experiment [5]; 2.96 µM in [6]. Moreover, the TGI worked out at 4.1 µM in experiment [7], 2.9 µM in [8], 4.14 µM in experiment [9] and 2.86 µM in experiment [10].
With `COC(=O)C#CC(N)=O`, the TGI in [1] was more than 100 µM; in experiment [2], more than 100 µM; in experiment [3], more than 100 µM; in experiment [4] it was more than 94.9 µM; in [5], more than 54.8 µM; in experiment [6], more than 100 µM. Moreover, the TGI was 99.1 µM in experiment [7], more than 100 µM in experiment [8], more than 100 µM in experiment [9] and more than 100 µM in [10].
Turning to `CN(C)C(=S)/N=c1\ss/c(=N\S(=O)(=O)c2ccccc2)n1C`, the TGI in experiment [1], in experiment [2], in experiment [3], in experiment [4], in [5] and in [6] was more than 100 µM each time. Besides, the TGI in experiment [7], in [8], in [9] and in experiment [10] was more than 100 µM each time.
Consider `CN(C)CCOc1ccc2c(c1)C(=O)/C(=C\c1ncc([N+](=O)[O-])n1C)C2`, for which the GI50 is 1.4 µM in experiment [1]; 0.529 µM in [2]; 0.46 µM in experiment [3]; 0.95 µM in experiment [4]; 0.474 µM in [5]; 0.507 µM in experiment [6]. Moreover, the GI50 in experiment [7] is 1.57 µM; in experiment [8] it was 0.298 µM; in experiment [9] it was 1.31 µM; in experiment [10], 0.179 µM. The TGI in [1] was 3.35 µM; in [2] it was 3.53 µM; in experiment [3], 1.47 µM; in [4] it was more than 20.5 µM; in experiment [5] it was 4.22 µM; in [6] it was 1.75 µM. In addition, the TGI in [7] was determined as 4.8 µM; in experiment [8] it was 2.37 µM; in experiment [9] it was 3.7 µM; in experiment [10] it was 0.402 µM.
As to `CNC(=O)c1cc(-c2ccc(F)cc2)cc(-c2ccc(S(=O)(=O)N3CCCC3)cc2)c1N`, the GI50 was more than 25 µM in experiment [1]; 16.1 µM in [2]; 10.6 µM in [3]; more than 25 µM in experiment [4]; 18.6 µM in [5]; more than 25 µM in experiment [6]. The GI50 is more than 25 µM in experiment [7], 21.5 µM in experiment [8], more than 25 µM in experiment [9] and 12.9 µM in [10]. The TGI in experiment [1], in [2], in [3], in [4], in experiment [5] and in experiment [6] was more than 25 µM in each case. Further, the TGI in experiment [7], in experiment [8], in experiment [9] and in experiment [10] was more than 25 µM throughout.
As for `Cn1cc(-c2csc(-c3cn(C(=O)OC(C)(C)C)c4ccccc34)n2)c2cccnc21`, the GI50 in [1] was 3.51 µM; in [2], 6.73 µM; in [3], 3.42 µM; in experiment [4] it was 6.03 µM; in experiment [5], 4.53 µM; in experiment [6] it was 10.2 µM. In addition, the GI50 in experiment [7] was 15.9 µM; in [8], 7.33 µM; in [9], 3.07 µM; in [10], 2.56 µM. Also, the TGI was found to be 17.4 µM in experiment [1]; 47 µM in [2]; 14.5 µM in [3]; 33.9 µM in experiment [4]; 21.6 µM in experiment [5]; 25.3 µM in experiment [6]. The TGI is 42.2 µM in experiment [7], 20.4 µM in experiment [8], 20.6 µM in [9] and 13.2 µM in experiment [10].
As for `CCCCCCCCc1cc(O)ccc1O`, the GI50 in experiment [1] was 15.4 µM; in [2] it was 14.8 µM; in experiment [3] it was 20.7 µM; in experiment [4], 29.2 µM; in experiment [5], 21.6 µM; in experiment [6], 18.4 µM. Besides, the GI50 in [7] is 1.46 µM; in experiment [8] it was 20.4 µM; in experiment [9], 17.3 µM; in experiment [10], 17 µM. Besides, the TGI is 28.8 µM in [1]; 39.2 µM in experiment [2]; 49 µM in experiment [3]; more than 100 µM in experiment [4]; 46.1 µM in [5]; 34.4 µM in experiment [6]. The TGI in experiment [7] was found to be 22.7 µM; in experiment [8], 50.9 µM; in [9] it was 41.7 µM; in experiment [10], 30.7 µM.
As to `CC(=O)OC1=C(CC(C)(C)C)C(=O)c2ccccc2C1=O`, the TGI was more than 100 µM in experiment [1]; more than 100 µM in experiment [2]; 70.4 µM in experiment [3]; more than 100 µM in experiment [4]; more than 100 µM in experiment [5]; more than 100 µM in experiment [6]. In addition, the TGI was more than 100 µM in experiment [7], more than 100 µM in [8], more than 100 µM in experiment [9] and 51.3 µM in experiment [10].
`C[C@@H]1Cc2c(ccc3[nH]ncc23)[C@@H](c2ccc(NC3CN(CCCF)C3)cn2)N1CC(F)(F)F`: the GI50 is 16.9 µM in [1]; 32.9 µM in experiment [2]; 18 µM in experiment [3]; 23.5 µM in experiment [4]; 17.5 µM in [5]; 17.2 µM in experiment [6]. The GI50 in experiment [7] is 17.9 µM; in [8], 22.2 µM; in [9], 39 µM; in experiment [10], 14.3 µM. For the same compound, the TGI was 32.5 µM in [1]; more than 100 µM in experiment [2]; 36.9 µM in [3]; 69.8 µM in [4]; 34.3 µM in experiment [5]; 33.5 µM in [6]. The TGI in experiment [7] was 44.7 µM; in [8], 53 µM; in [9] it was more than 100 µM; in experiment [10], 28.2 µM.
